A short description of the data set: Example 5: pilot device, degradation of four pesticides (FIG. 6). As to conditions: initial boscalid 250, thiacloprid 100, fludioxonil 100, pyraclostrobin 125 μg/l; initial hydrogen peroxide 2 μg/l; 6 m^3/h, five lamps on. It is filed as physicochemical. The text has this:
A semi-industrial pilot device in accordance with one aspect of the invention comprises a tank for recirculating water to be treated of a volume of 1000 l, a circulation pump ensuring a circulation flow of the water to be treated in a sanitising device with a flow rate between 4 m^3 to 8 m^3/h. The sanitising device comprises a photolysis chamber comprising an inlet for water from the recirculation tank and an outlet for sanitised water directed to the recirculation tank. The photolysis chamber is formed of a rigid tubular envelope, of which the external wall is opaque to light and forming an inner space suitable for receiving five fluorescent tubes with a longitudinal axis extending in parallel with the longitudinal axis of the rigid tubular envelope. The inner volume of the decontamination reactor is in the order of […].
The five fluorescent tubes are tubes of 200 W emitting light at a wavelength of 254 nm and arranged longitudinally in the tubular envelope at the five points of a regular pentagon and in contact with the water to be treated flowing in the photolysis chamber. In this configuration of the sanitising device, the water to be sanitised flowing in contact with the five fluorescent tubes is subjected to substantially homogeneous illumination in the order of 500 mJ/cm^2 for a circulation flow rate of water to be sanitised in the order of 6 m^3/h. The semi-industrial pilot device also comprises a tank for storing an aqueous solution of hydrogen peroxide (H2O2) provided with a pump for distributing said solution in the circulation flow of water to be sanitised issuing into the circuit of water to be sanitised upstream of and in proximity to the photolysis chamber. The concentration of the hydrogen peroxide in the aqueous solution of hydrogen peroxide is between 2 m g/l and 13 mg/l. The set-point flow rate of the pump for distributing solution of H2O2 is kept at 4 l/h.
A study was carried out in a semi-industrial pilot device as described above on the degradation of boscalid, thiacloprid, fludioxonil and pyraclostrobin. […]
With `COC(=O)N(OC)c1ccccc1COc1ccn(-c2ccc(Cl)cc2)n1` [pyraclostrobin], the “degraded within 1 hour” value was determined as 85%.
With `N#C/N=C1\SCCN1Cc1ccc(Cl)nc1` [thiacloprid] the entry was “more than 95%”; with `N#Cc1c[nH]cc1-c1cccc2c1OC(F)(F)O2` [fludioxonil], 90%.

Source of the values: patent publication US10919785B2, “Hydraulic conveyor of floating objects provided with a device for sanitising conveying composition, plant provided with such a conveyor and sanitising method” (MAF AGROBOTIC, priority 2016, dated 2021).
